This note sets out measurements from patent US20210283139A1, “BIFUNCTIONAL MOLECULES FOR TARGETING UCHL5” (AMPHISTA THERAPEUTICS LTD, priority 2018, published 2021).

Type in all cases: cell-based
The target of assay [1] is Brd2 (Homo sapiens, UniProt P25440). Description: Immunoblot in MV4-11 cells. Also on record: endogenous in cells; host or cells: MV4-11. The conditions noted are these: MV4-11, 6 h, increasing concentrations. The procedure: (§1) MV4-11 (0.7×10^6 cells/mL) were seeded in 10 cm plates (10 mL DMEM supplemented with 10% FBS and L-glutamine) overnight before treatment with compounds at the desired concentration and with a final DMSO concentration of 0.1% v/v. After 6 h incubation time, cells were washed 2× with DPBS (Gibco) and lysed using 85 μL RIPA buffer (Sigma-Aldrich) supplemented with cOmplete Mini EDTA-free protease inhibitor cocktail (Roche) and benzonase. Lysates were clarified by centrifugation (20,000 g, 10 min, 4° C.) and the total protein content of the supernatant was quantified using a Bradford colorimetric assay. Samples were prepared using equal amounts of total protein and LDS sample buffer (Invitrogen). For immunoblot analysis, the following antibodies were used: anti-Brd2 (ab139690, 1:2,000 dilution), anti-Brd3 (ab50818, 1:500 dilution), anti-Brd4 (ab128874, 1:1,000 dilution), anti-c-myc (ab32072, 1:1,000 dilution), anti- total PARP (BD Bioscience #556494; 1:1,000 dilution), anti-cleaved PARP (CST-9541T, 1:1,000 dilution), and anti-Tubulin hFAB-rhodamine (BioRad, 12004166, 1:10,000 dilution).
Brd2, sequence (P25440 whole entry): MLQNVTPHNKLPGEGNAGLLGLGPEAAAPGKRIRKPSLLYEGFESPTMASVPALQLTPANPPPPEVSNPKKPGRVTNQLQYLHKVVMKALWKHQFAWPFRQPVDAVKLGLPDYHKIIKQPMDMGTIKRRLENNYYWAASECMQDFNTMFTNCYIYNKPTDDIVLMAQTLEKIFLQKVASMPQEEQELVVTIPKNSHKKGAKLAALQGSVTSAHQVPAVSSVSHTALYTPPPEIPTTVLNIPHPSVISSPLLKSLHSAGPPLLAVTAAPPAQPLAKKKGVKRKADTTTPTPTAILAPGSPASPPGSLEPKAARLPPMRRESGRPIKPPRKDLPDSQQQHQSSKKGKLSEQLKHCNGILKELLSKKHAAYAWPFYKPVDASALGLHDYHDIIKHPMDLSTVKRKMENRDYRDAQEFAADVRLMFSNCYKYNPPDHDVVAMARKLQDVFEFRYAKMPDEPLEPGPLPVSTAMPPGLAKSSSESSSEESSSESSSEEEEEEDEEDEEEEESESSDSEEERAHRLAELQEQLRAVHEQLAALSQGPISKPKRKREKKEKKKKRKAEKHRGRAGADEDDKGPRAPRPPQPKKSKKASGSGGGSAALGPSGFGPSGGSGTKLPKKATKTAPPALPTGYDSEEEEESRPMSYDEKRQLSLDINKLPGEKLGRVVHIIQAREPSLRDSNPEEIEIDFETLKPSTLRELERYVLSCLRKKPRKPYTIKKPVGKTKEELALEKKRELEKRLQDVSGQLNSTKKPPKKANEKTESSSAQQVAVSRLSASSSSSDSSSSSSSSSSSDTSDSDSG
In general terms: A western blot detects proteins with antibodies after separation by electrophoresis.

The target in assay [2] is Brd3 (Homo sapiens, UniProt Q15059). Description: Immunoblot in MV4-11 cells. The settings on record: MV4-11, 6 h, increasing concentrations. Also on record: endogenous in cells; host or cells: MV4-11. As for the experimental part:
as §1

Assay [3] concerns PARP. The assay is described as follows: Immunoblot of total and cleaved PARP in MV4-11 cells. The settings on record: MV4-11, 6 h. The procedure: as §1
The target in assay [4] is T1, Brd4 (Homo sapiens, UniProt O60885).
T1 construct: endogenous in cells; host or cells: HEK293, HAP1, MV4-11
The assay is described as follows: Immunoblot in MV4-11 cells. The settings on record: MV4-11, 6 h, increasing concentrations. The procedure:
as §1

The target in assay [5] is T1, Brd4. The assay is described as follows: Mechanistic evaluation of Brd4 degradation in HAP1 cells (bortezomib, degrasyn or I-BET726 pre-treatment). The conditions noted are these: 6 h. The procedure: (§2) Immunoblotting. proteins were separated by SDS-PAGE on NuPage 4-12% Bis-Tris gels, followed by transfer to Amersham Protran 0.45 NC nitrocellulose membrane (GE Healthcare) using wet transfer. Membranes were blocked using 5% w/v milk in Tris-buffered saline (TBS) with 0.1% Tween-20. Blots were probed (overnight at 4° C.) using anti-Brd2 (Abcam ab139690, 1:2,000 dilution), anti-Brd3 (Abcam ab50818, 1:500 dilution), and anti-Brd4 (Abcam ab128874, 1:1,000 dilution) primary antibodies, as appropriate. The next day, blots were washed with TBST and incubated (1 hr at RT) with anti-Tubulin hFAB-rhodamine (BioRad, 12004166) primary antibody, and either anti-rabbit IRDye 800CW (Licor 1:10,000 dilution) or anti-mouse IRDye 800CW (Licor 1:10,000 dilution) secondary antibody. Blots were developed using a Bio-Rad ChemiDoc MP Imaging System, and band quantification was performed using Image Studio software (LiCor). Band intensities were normalized to the tubulin loading control and reported as % of the average 0.1% DMSO vehicle intensity. Degradation data was plotted and analysed using Prism (Graphpad, version 8).
(§3) HAP1 (1×10^6) cells were seeded in standard 6-well plates (2 mL medium) overnight before pre-treatment with inhibitors (10 μM bortezomib, 5 μM degrasyn or 1 μM I-BET726). After a 0.5 h pre-incubation time, cells were subsequently treated with vehicle, 0.1 μM MZ1 or 0.1 μM 05IB9, yielding a final overall DMSO concentration of 0.2% v/v. After 6 h incubation, cells were washed with DPBS (Gibco) and lysed using 85 μL RIPA buffer (Sigma-Aldrich) supplemented with cOmplete Mini EDTA-free protease inhibitor cocktail (Roche) and benzonase. Lysates were clarified by centrifugation (20,000 g, 10 min, 4° C.) and the total protein content of the supernatant was quantified using a Bradford colorimetric assay. Samples were prepared using equal amounts of total protein and LDS sample buffer (Invitrogen).
Representative blots from HAP1 lysates in FIG. 9 show depletion of Brd4 protein levels following 6 h treatment with 0.1 μM 05IB9 or MZ1, in the presence and absence of 5 μM degrasyn and 10 μM bortezomib. Brd4 band intensities were normalized to β-tubulin loading control and reported in FIG. 9B as % of the average 0.1% DMSO vehicle intensity. Each bar is mean±SEM of three independent experiments performed in duplicate (n=3). […] Furthermore, excess […] competes with 05IB9, resulting in reduced degradation of Brd4.

Assay [6] addresses T1, Brd4. Description: Proteasome dependency of Brd4 degradation in HEK293 cells (bortezomib pre-treatment). The settings on record: 6 h. The procedure: as §2
as §3, with “HEK293” for “HAP1”, “10” for “inhibitors (10”, “bortezomib.” for “bortezomib, 5 μM degrasyn or 1 μM I-BET726).”, “1” for “0.1”, “05IB6,” for “05IB9,”

For assay [7], the target named is T1, Brd4. Description: Negative SAR: Brd4 immunoblot in HEK293 cells, active vs negative control. The conditions noted are these: HEK293, 1 μM, 6 h, three independent treatments. As for the experimental part:
as §2
HEK293 (1×10^6) cells incubated with DMSO, 1 μM 05IB11 or 1 μM 05IB6 for 6 h with a final DMSO concentration of 0.1% v/v. Cells from three independent treatments (n=3) were lysed with RIPA buffer and immunoblotted for Brd4 and β-tubulin.

Brd3, sequence (Q15059 whole entry): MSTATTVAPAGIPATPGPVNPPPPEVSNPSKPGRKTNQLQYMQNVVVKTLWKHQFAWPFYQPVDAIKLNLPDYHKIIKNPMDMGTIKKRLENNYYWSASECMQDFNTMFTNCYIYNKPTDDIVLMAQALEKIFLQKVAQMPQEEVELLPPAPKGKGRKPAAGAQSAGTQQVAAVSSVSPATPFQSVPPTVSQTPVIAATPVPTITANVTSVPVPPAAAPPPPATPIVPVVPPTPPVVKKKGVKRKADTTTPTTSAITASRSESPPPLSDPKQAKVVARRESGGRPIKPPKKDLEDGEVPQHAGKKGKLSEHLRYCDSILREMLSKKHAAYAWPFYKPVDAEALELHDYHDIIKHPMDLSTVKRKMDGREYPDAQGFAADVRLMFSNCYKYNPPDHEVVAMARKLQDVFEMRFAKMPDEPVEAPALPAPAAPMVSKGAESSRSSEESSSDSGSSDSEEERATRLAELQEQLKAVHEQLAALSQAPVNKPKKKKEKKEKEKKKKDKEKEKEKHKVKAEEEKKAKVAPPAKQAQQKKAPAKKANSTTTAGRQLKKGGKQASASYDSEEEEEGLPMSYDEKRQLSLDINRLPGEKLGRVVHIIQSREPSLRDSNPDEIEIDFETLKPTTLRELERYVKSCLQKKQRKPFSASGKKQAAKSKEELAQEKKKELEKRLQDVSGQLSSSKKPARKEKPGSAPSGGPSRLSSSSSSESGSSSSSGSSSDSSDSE

For `CCCC(NC(=O)/C(C#N)=C/c1nccs1)c1ccc(OCCOCCOCCOCCOCCOCCOCCNC(=O)c2ccc(-c3ccc4c(c3)[C@H](Nc3ccc(Cl)cc3)C[C@H](C)N4C(C)=O)cc2)cc1` (some centres unmarked) [Example 05IB9], the Brd2 levels entry in assay [1] is listed as “depletion”. In addition, the Brd3 levels entry in assay [2] is “depletion”. Also, in assay [3], the “increase in C-PARP compared with inhibitor and negative control” value was “greater than inhibitor (I-BET726) alone and the negative control (05IB11)”. For the same compound, in assay [3] (increasing concentrations), the “cleaved PARP” value was “increase” and the “total PARP levels” value is “depletion”. Also, in assay [4], the Brd4 levels entry is “depletion”. Further, the “Brd4 degradation in the presence of bortezomib or degrasyn” value in assay [5] (HAP1, 0.1 μM compound, 0.5 h pre-treatment with 10 μM bortezomib or 5 μM degrasyn) was “completely blocked in the presence of bortezomib and degrasyn”. In assay [5] (HAP1, 0.1 μM), the Brd4 protein levels result was “depletion”.
As for `CCCC(NC(=O)/C(C#N)=C/c1cccc(Br)n1)c1ccc(OCCOCCOCCOCCOCCOCCOCCNC(=O)c2ccc(-c3ccc4c(c3)[C@H](Nc3ccc(Cl)cc3)C[C@H](C)N4C(C)=O)cc2)cc1` (some centres unmarked) [Example 05IB6], the “Brd4 degradation in the presence of bortezomib” value in assay [6] (HEK293, 1 μM compound, 0.5 h pre-treatment with 10 μM bortezomib) was “completely blocked”. In addition, the Brd4 protein levels entry in assay [6] (HEK293, 1 μM) is “depletion”. The Brd4 levels result in assay [7] was “significant depletion”.
